Where “and” joins values, the source holds several entries; their conditions need not be identical. Equal entries are not always repeated. Entries after “also recorded” stand apart in the source; their conditions may differ. Where two headings read alike, the source gives them in different places.
Legend:
[1] = system: SH-SY5Y human neuroblastoma cells; test: MTT cytotoxicity assay, SH-SY5Y; assay type: cell-based; details: mean ± SD, read-out: Cytotoxic activity IC50, SH-SY5Y
Excerpt: (§1) The human neuroblastoma cells (SH-SY5Y), triple-negative breast cancer cells (MDA-MB-231), and human pancreatic cancer cells (Panc1) used in this study were purchased from the American Type Culture Collection (ATCC). The cells were suspended in complete Dulbecco’s modified Eagle medium (DMEM) (Life Technologies, Gibco BRL, Grand Island, NY) supplemented with 10% fetal bovine serum (FBS, Hyclone), 1% penicillin and streptomycin (100 U/mL, Invitrogen) and plated in cell culture dishes. The cultures were maintained at 37 °C in a 5% CO2 95% humidified atmosphere. After reaching 85% confluence, the cells were transferred to 96-well plates or culture dishes. For MTT assays, the cells were seeded into 96-well cell culture plates at a density of 2 × 10^3 cells per well and allowed to adhere for 24 h. The cells were treated with fresh medium containing experimental compounds (100, 10, 1 µM) and incubated in a 5% CO2 incubator for 48 and 72 h. For protein analysis, the cells were seeded into 6-well cell culture plates at a density of 0.5 x 10^6 cells/well and allowed to adhere to the surface for 24 h. The stock solutions of the test compounds (5 mM) were prepared in sterile DMSO, and these stocks were then appropriately diluted with the complete culture medium. DMSO levels were maintained below 1% in the test concentrations.
(§2) Briefly, following exposures, MTT (at a final concentration of 0.5 mg/mL) was added to each well, and plates were incubated for 2 h at 37 °C in a 5% CO2 humidified incubator. The reaction mixture was removed, and DMSO was added to each well. The plates were shaken at room temperature, and the absorbance was measured at 570 nm and 630 nm using a microplate reader (VersaMax, Molecular Devices, USA). Percent survival was plotted relative to vehicle control cells, which were normalized to 100% survival.

[2] = system: MDA-MB-231 triple-negative breast cancer cells; test: MTT cytotoxicity assay, MDA-MB-231; assay type: cell-based, human; details: mean ± SD, read-out: Cytotoxic activity IC50, MDA-MB-231
Excerpt: as §1, §2

[3] = MTT cytotoxicity assay, MCF-10a (nontumorigenic); assay type: cell-based; details: MCF-10a nontumorigenic mammary cells, MCF-10a nontumorigenic human mammary cell line, mean ± SD, read-out: Cytotoxic activity IC50, MCF-10a
Excerpt: [The source words this procedure for another cell line and reports this cell line under the same test.] as §1, §2

[4] = system: PANC-1 human pancreatic cancer cells; test: MTT cytotoxicity assay, PANC-1; assay type: cell-based; details: mean ± SD, read-out: Cytotoxic activity IC50, PANC-1
Excerpt: as §1, §2

[5] = system: BAX, Bcl-2, Bcl-xL, caspase-3 and caspase-9 expression in PANC-1 cell line; test: Western blot of apoptotic proteins, PANC-1; assay type: cell-based, human; details: at IC50, 24 and 48 h, vs control
Procedure: (§3) The cells (0.5 × 10^6 cell/well) were seeded into 6 well plates and incubated for 24 h, and then treated with selected experimental compounds for 24 h and 48 h. Following incubation, the cells were washed with ice-cold 1X PBS and lysed in 1X cell lysis buffer. These lysates were quantified using the BCA protein assay. Then, the cell lysates were analyzed by western blot.
(§4) On a 12% (w/v) tris-glycine denaturing gel, 20 μg protein was separated by electrophoresis, and then transferred to a PVDF membrane. After blocking, the membrane was incubated with primary antibodies, anti-Bax rabbit monoclonal antibody, anti-Bcl-2 rabbit monoclonal antibody, anti-Bcl-xL rabbit monoclonal antibody, anti-caspase-3 rabbit monoclonal antibody, and anti-caspase-9 rabbit monoclonal antibody (1:1000, Cell Signaling Technology) at 4 °C overnight. Following the incubation, the membrane was incubated with an anti-β-actin mouse monoclonal antibody (1:1000, Cell Signaling Technology) at room temperature for 1 h. After washing, the membrane was incubated with peroxidase-conjugated secondary antibodies for 1 h to visualize labeled proteins by enhanced chemiluminescence.

[6] = system: BAX, Bcl-2, Bcl-xL, caspase-3 and caspase-9 expression in MDA-MB-231 cell line; test: Western blot of apoptotic proteins, MDA-MB-231; assay type: cell-based, human; details: for BAX protein levels: after only 24 h; for increase of caspase-9 activity: after only 48 h, relative to control; for decrease of Bcl-2 expression: after 24 and 48 h, compared to control
Procedure: as §3, §4

[7] = system: SH-SY5Y cells; test: Annexin V-FITC/PI flow cytometry, SH-SY5Y; assay type: cell-based, human; details: 48 h, control 3.2%
Procedure: (§5) The cells were harvested after 48 h, washed with PBS, and analyzed using the Annexin V FITC/PI Apoptosis Detection kit (BioVision, Mountain View, CA, USA) with a benchtop flow cytometer (Accuri C6 flow cytometry, Becton Dickinson).

[8] = system: MDA-MB-231 cells; test: Annexin V-FITC/PI flow cytometry, MDA-MB-231; assay type: cell-based, human; details: 48 h, control 1.2%
Procedure: as §5

[9] = system: PANC-1 cells; test: Annexin V-FITC/PI flow cytometry, PANC-1; assay type: cell-based, human; details: at cytotoxic concentrations, 48 h
Procedure: as §5

Structure (SMILES) | melting point [°C] | IC50 ([1]; Homo sapiens, SH-SY5Y) [µM] | IC50 ([2]; Homo sapiens, MDA-MB-231, MTT) [µM] | IC50 [3] [µM] | IC50 ([4]; Homo sapiens, PANC-1, MTT) [µM] | BAX protein levels ([6]; Western blot) | other results
O=C(NCCS(=O)(=O)Nc1ccccc1)c1ccccc1 [Compound 1, N-(2-(N-phenylsulfamoyl)ethyl)benzamide] | 123.7 to 124.7 | 92.2 ± 1.5 | 140.4 ± 1.1 | 78.2 ± 1.6 | 86.7 ± 1.4 | – | –
O=C(NCCS(=O)(=O)Nc1ccccc1)c1ccc(Cl)cc1 [Compound 2, 4-Chloro-N-(2-(N-phenylsulfamoyl)ethyl)benzamide] | 143.8 to 144.8 | 29 ± 1.5 | 99.7 ± 1.1 | 232.9 ± 2.1 | 86.6 | significantly increased | BAX expression [5]: significantly upregulated; Bcl-2 expression [5]: significantly upregulated; IC50 ([4]; MTT): 86.6 ± 1.6 µM
COc1ccc(C(=O)NCCS(=O)(=O)Nc2ccccc2)cc1 [Compound 3, 4-Methoxy-N-(2-(N-phenylsulfamoyl)ethyl)benzamide] | 121.3 to 122.3 | 57.4 ± 1.6 | 111 ± 1.2 | 98.9 ± 1.2 | 104 ± 1.6 | – | –
Cc1ccc(C(=O)NCCS(=O)(=O)Nc2ccccc2)cc1 [Compound 4, 4-Methyl-N-(2-(N-phenylsulfamoyl)ethyl)benzamide] | 149.7 to 150.7 | 75.9 ± 1.6 | 89.7 ± 1.5 | 132 ± 1.7 | 86.6 ± 1.4 | – | –
O=C(NCCS(=O)(=O)N1CCOCC1)c1ccccc1 [Compound 5, N-(2-(morpholinosulfonyl)ethyl)benzamide] | 107 to 108 | 118 ± 1.8 | 103 ± 1.7 | 89.6 ± 1.5 | 24.2 ± 2.1 | – | –
O=C(NCCS(=O)(=O)N1CCOCC1)c1ccc(Cl)cc1 [Compound 6, 4-Chloro-N-(2-(morpholinosulfonyl)ethyl)benzamide] | 162 to 163 | 80.6 | 79.1 | 70.7 ± 1.8 | 8.8 ± 2.1 | significantly increased | IC50 [1]: 80.6 ± 1.9 µM; IC50 ([2]; MTT): 136 ± 1.5 µM; increase of caspase-9 activity [6]: 1.06 fold
COc1ccc(C(=O)NCCS(=O)(=O)N2CCOCC2)cc1 [Compound 7, 4-Methoxy-N-(2-(morpholinosulfonyl)ethyl)benzamide] | 183.5 to 184.5 | 134 ± 1.7 | 136 | 118 ± 1.2 | 1.2 ± 1.8 | significantly increased | BAX expression [5]: effectively upregulated; Bcl-2 expression [5]: did not show any effect; Bcl-xL expression [5]: slightly decreased; caspase-3 expression [5]: effectively upregulated; caspase-9 expression [5]: effectively upregulated; IC50 ([2]; MTT): 79 µM and 77 µM; apoptotic cell ratios [7]: no positive results; caspase-3 expression (in words) ([6]; Western blot): lack of change; decrease of Bcl-2 expression [6]: 2- to 3 fold; percent of the positive apoptotic cells [8]: no changes; apoptotic cell ratios (Annexin V-FITC/PI result) [9]: no significant changes; also recorded: negative
Cc1ccc(C(=O)NCCS(=O)(=O)N2CCOCC2)cc1 [Compound 8, 4-Methyl-N-(2-(morpholinosulfonyl)ethyl)benzamide] | 174.2 to 175.2 | 79.3 ± 1.6 | 81.5 ± 1.2 | 81.4 ± 1.3 | 120.3 ± 1.2 | – | –
NS(=O)(=O)CCNC(=O)c1ccccc1 [Compound 9, N-(2-sulfamoylethyl)benzamide] | 162 to 163 | 81.1 ± 2.1 | 99.8 ± 1.7 | 109 ± 1.1 | 85.5 ± 1.7 | – | –

Continued, in another order:

melting point [°C] | Structure (SMILES) | IC50 ([1]; Homo sapiens, SH-SY5Y) [µM] | IC50 ([2]; Homo sapiens, MDA-MB-231, MTT) [µM] | IC50 [3] [µM] | IC50 ([4]; Homo sapiens, PANC-1, MTT) [µM] | BAX protein levels ([6]; Western blot) | other results
158 to 159 | NS(=O)(=O)CCNC(=O)c1ccc(Cl)cc1 [Compound 10, 4-Chloro-N-(2-sulfamoylethyl)benzamide] | 38.6 ± 1.6 | 77 | 172.1 ± 1.4 | 89.1 ± 1.7 | significantly increased | caspase-3 expression [5]: effectively increased; IC50 ([2]; MTT): 79.1 ± 1.3 µM; increase of caspase-9 activity [6]: 1.12 fold
176 to 177 | COc1ccc(C(=O)NCCS(N)(=O)=O)cc1 [Compound 11, 4-Methoxy-N-(2-sulfamoylethyl)benzamide] | 237.8 ± 1.7 | 114 ± 1.3 | 81.1 ± 1.4 | 83.8 ± 1.5 | – | –
181 to 182 | Cc1ccc(C(=O)NCCS(N)(=O)=O)cc1 [Compound 12, 4-Methyl-N-(2-sulfamoylethyl)benzamide] | 79.5 ± 1.8 | 81 ± 1.6 | 106 ± 1.4 | 44.6 ± 1.9 | – | –
110 to 111 | COc1ccc(NS(=O)(=O)CCNC(=O)c2ccccc2)cc1 [Compound 13, N-(2-(N-(4-methoxyphenyl)sulfamoyl)ethyl)benzamide] | 47.5 ± 1.5 | 76.1 ± 1.6 | 217.8 ± 1.3 | 17.9 ± 2.1 | – | –
160 to 161 | COc1ccc(NS(=O)(=O)CCNC(=O)c2ccc(Cl)cc2)cc1 [Compound 14, 4-Chloro-N-(2-(N-(4-methoxyphenyl)sulfamoyl)ethyl)benzamide] | 26 ± 1.4 | 19.9 ± 1.7 | 109 ± 1.2 | 22.5 ± 1.7 | significantly increased | BAX expression [5]: increased; Bcl-2 expression [5]: decrease; Bcl-xL expression [5]: decrease; caspase-3 expression [5]: increased; caspase-9 expression [5]: increased; apoptotic cell ratios [7]: 3.8%; increase of caspase-9 activity [6]: 1.18 fold; percent of the positive apoptotic cells [8]: 1.6%; apoptotic cell ratios (Annexin V-FITC/PI result) [9]: no significant changes; also recorded: negative
112 to 113 | COc1ccc(NS(=O)(=O)CCNC(=O)c2ccc(OC)cc2)cc1 [Compound 15, 4-Methoxy-N-(2-(N-(4-methoxyphenyl)sulfamoyl)ethyl)benzamide] | 39.9 ± 1.6 | 33.9 ± 1.8 | 118 ± 1.4 | 18.1 ± 1.6 | significantly increased | Bcl-xL expression [5]: opposite effect; caspase-3 expression [5]: opposite effect; caspase-9 expression [5]: opposite effect; apoptotic cell ratios [7]: 3.9%; caspase-3 expression (in words) ([6]; Western blot): increased; caspase-9 expression levels (in words) ([6]; Western blot): did not exert any effect; decrease of Bcl-2 expression [6]: 2- to 3 fold; percent of the positive apoptotic cells [8]: 1.4%; apoptotic cell ratios (Annexin V-FITC/PI result) [9]: no significant changes; also recorded: negative
127 to 128 | COc1ccc(NS(=O)(=O)CCNC(=O)c2ccc(C)cc2)cc1 [Compound 16, N-(2-(N-(4-methoxyphenyl)sulfamoyl)ethyl)-4-methylbenzamide] | 32.7 ± 1.7 | 15.7 ± 1.9 | 132.9 ± 1.2 | 21.4 ± 1.7 | – | –
